Laboratory results taken from patent publication US20260216347A1, “Substituted Imidazo-Based Compounds as Ligand Directed Degraders of IRAK3” (Celgene Corporation, priority 2022, published 2026).

Columns and labels:
IRAK3-ePL = molecular target: T1, IRAK3-ePL (Homo sapiens, UniProt Q9Y616); assay: IRAK3-ePL overexpressing degradation assay (InCELL Hunter luminescence, dose response); format: cell-based; settings: for IRAK3 ePL degradation Ymin: lowest percentage of target protein remaining following compound treatment; for DC50: read-out: IRAK3 ePL degradation EC50
T1 construct: expressed in transfected cells; host or cells: 293T CRBN OE/GSPT1 G575N KI cells, lentiviral transduction, puromycin selected
In short: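 Lenti-X 293T CRBN/GSPT1 G575N cells stably expressing IRAK3-ePL (5,000/well) treated overnight at 37° C with 10-point 3-fold dilutions from 10 μM, 0.2% DMSO. InCELL Hunter luminescence, background subtracted using Ataluren wells and normalized to DMSO; EC50 from four-parameter logistic fit.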

IRAK3 = molecular target: T2, IRAK3 (Homo sapiens, UniProt Q9Y616); assay: IRAK endogenous HTRF degradation assay (Total-IRAK3 HTRF kit); format: cell-based; settings: overnight incubation, lowest percentage of protein remaining
T2 construct: IRAK Endogenous HTRF Degradation Assay; endogenous in cells
T2 sequence (Q9Y616 1-596): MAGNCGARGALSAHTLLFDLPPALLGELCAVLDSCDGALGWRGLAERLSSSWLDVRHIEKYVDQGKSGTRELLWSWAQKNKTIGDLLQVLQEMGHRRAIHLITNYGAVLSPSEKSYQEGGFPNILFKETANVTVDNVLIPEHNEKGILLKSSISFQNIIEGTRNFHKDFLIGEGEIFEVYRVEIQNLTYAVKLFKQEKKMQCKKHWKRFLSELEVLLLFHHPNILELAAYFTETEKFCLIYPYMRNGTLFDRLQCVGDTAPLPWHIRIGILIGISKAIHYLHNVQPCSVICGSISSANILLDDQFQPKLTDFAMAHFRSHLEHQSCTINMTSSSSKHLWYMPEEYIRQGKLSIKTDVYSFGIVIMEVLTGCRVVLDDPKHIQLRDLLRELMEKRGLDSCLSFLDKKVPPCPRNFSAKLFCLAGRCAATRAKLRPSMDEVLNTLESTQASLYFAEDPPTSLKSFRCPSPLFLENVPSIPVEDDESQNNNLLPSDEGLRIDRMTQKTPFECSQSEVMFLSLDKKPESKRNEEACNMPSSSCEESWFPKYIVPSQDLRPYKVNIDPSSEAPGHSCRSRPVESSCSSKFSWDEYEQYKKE
Experimental: Example B2. IRAK Endogenous HTRF Degradation Assay
Cells (~50 k) were plated in Cisbio 96-well low volume white plates (Cisbio: cat #66PL96005). Compounds were dissolved in DMSO and a 3-fold serial dilution was performed using a TECAN D300E. Cells were incubated with the compound overnight. Total-IRAK3 HTRF kit from Cisbio was used for degradation analysis (Cisbio: 63ADK101PEH). Cryptate and D2 antibodies were diluted in Detection buffer as per manufacturers recommendation. Then 2 μL of each solution was added to 16 μL lysate. Buffer control (lysis buffer detection buffer), Cryptate control (lysis buffer+cryptate antibody+detection buffer), and Negative control (lysis buffer+cryptate antibody+D2 antibody) were made as per manufacturers recommendation. Post incubation with antibodies the HTRF signal was measured using a Perkin Elmer Envision reader and the HTRF signal was calculated using formula: (Emission at 665 nm/Emission at 615 nm)*10,000. All HTRF values were normalized to the average value of DMSO. The average value of the DMSO control wells were set to equal 100% of the relative IRAK3 protein levels. Normalized luminescence values were plotted on a graph as a function of compound concentration. Compound concentration was plotted on the x-axis and the corresponding normalized IRAK3 protein levels on the y-axis. The EC50 value (the half-maximum effective concentration) of a compound for the degradation of the IRAK3 was calculated using a four-parameter logistic model (sigmoidal dose-response model) (FIT=(A+{(B−A)/1+[(C/x)D]})) where C is the inflection point (EC50), D is the […], and A and B are the low and high limits of the fit, respectively). The Ymin was calculated by determining the lowest percentage of target protein remaining following compound treatment. Dmax was calculated from Ymin (% Dmax=100−Ymin).
Using these assays, IC50, Dmax, EC50, and DC50 values of the following compounds were determined. Dmax is defined as the maximum percent degradation achieved and DC50 is the concentration at which 50% degradation is achieved.

## Cc1cc(-c2cnc(Nc3cnn(C4CCN(CCN5CCN(c6ccc(C7CCC(=O)NC7=O)cc6)[C@@H](C)C5)CC4)c3)c3nccn23)c(F)cc1F (stereo partly drawn) [Compound 44, 3-(4-((S)-4-(2-(4-(4-((5-(2,4-difluoro-5-methylphenyl)imdazo [1,2-a]pyrazin-8-yl)amino)-1H-pyrazol-1-yl)piperidin-1-yl)ethyl)-2-methylpiperazin-1-yl)phenyl) piperidine-2,6-dione]
IRAK3-ePL
  IRAK3 ePL degradation Ymin: 26%
  DC50: 0.97 nM
IRAK3
  IRAK3 HTRF degradation Ymin: 8.1%

## Cc1cccc(-c2cnc(Nc3cnn([C@H]4CC[C@@H](CCN5CCN(c6ccc(C7CCC(=O)NC7=O)cc6)CC5)CC4)c3)c3nccn23)c1 (stereo partly drawn) [Compound 45, 3-(4-(4-(2-((cis)-4-(4-((5-(m-tolyl)imidazo [1,2-a]pyrazin-8-yl)amino)-1H-pyrazol-1-yl)cyclohexyl)ethyl)piperazin-1-yl)phenyl) piperidine-2,6-dione]
IRAK3-ePL
  IRAK3 ePL degradation Ymin: 26%
  DC50: 7.2 nM
IRAK3
  IRAK3 HTRF degradation Ymin: 15%

## Cc1cc(-c2cnc(Nc3cnn(C4CCN(CCN5CCN(c6ccc(C7CCC(=O)NC7=O)cc6)[C@H](C)C5)CC4)c3)c3nccn23)c(F)cc1F (stereo partly drawn) [Compound 50, 3-(4-((R)-4-(2-(4-(4-((5-(2,4-difluoro-5-methylphenyl)imdazo [1,2-a]pyrazin-8-yl)amino)-1H-pyrazol-1-yl)piperidin-1-yl)ethyl)-2-methylpiperazin-1-yl)phenyl) piperidine-2,6-dione]
IRAK3-ePL
  IRAK3 ePL degradation Ymin: 25%
  DC50: 1.3 nM
IRAK3
  IRAK3 HTRF degradation Ymin: 9.8%

## O=C1CCC(c2ccc(N3CCN(CCN4CCC(n5cc(Nc6ncc(-c7cc8c(cc7F)OCCN8)n7ccnc67)cn5)CC4)CC3)cc2)C(=O)N1 (stereo not drawn) [Compound 51, 3-(4-(4-(2-(4-(4-((5-(7-fluoro-3,4-dihydro-2H-benzo[b][1,4]oxazin-6-yl)imidazo[1,2-a]pyrazin-8-yl)amino)-1H-pyrazol-1-yl)piperidin-1-yl)ethyl)piperazin-1-yl)phenyl) piperidine-2,6-dione]
IRAK3-ePL
  IRAK3 ePL degradation Ymin: 24%
  DC50: 2.5 nM
IRAK3
  IRAK3 HTRF degradation Ymin: 9.3%

## Cc1cc(-c2cnc(N(C)c3cnn(C4CCN(CCN5CCN(c6ccc(C7CCC(=O)NC7=O)cc6)CC5)CC4)c3)c3nccn23)c(F)cc1F (stereo not drawn) [Compound 52, 3-(4-(4-(2-(4-(4-((5-(2,4-difluoro-5-methylphenyl)imdazo [1,2-a]pyrazin-8-yl)(methyl)amino)-1H-pyrazol-1-yl)piperidin-1-yl)ethyl)piperazin-1-yl)phenyl) piperidine-2,6-dione]
IRAK3-ePL
  IRAK3 ePL degradation Ymin: 40%
  DC50: 96 nM
IRAK3
  IRAK3 HTRF degradation Ymin: 74%

## Cc1cc(-c2cnc(Nc3cnn(C4CCN(CCN5CCN(c6ccc(C7CCC(=O)NC7=O)c(F)c6)CC5)CC4)c3)c3nccn23)c(F)cc1F (stereo not drawn) [Compound 53, 3-(4-(4-(2-(4-(4-((5-(2,4-difluoro-5-methylphenyl)imdazo [1,2-a]pyrazin-8-yl)amino)-1H-pyrazol-1-yl)piperidin-1-yl)ethyl)piperazin-1-yl)-2-fluorophenyl)piper idine-2,6-dione]
IRAK3-ePL
  IRAK3 ePL degradation Ymin: 22%
  DC50: 0.9 nM
IRAK3
  IRAK3 HTRF degradation Ymin: 11%

## Cc1cc(-c2cnc(Nc3cnn(C4CCN(CCN5CCN(c6ccc(C7CCC(=O)NC7=O)c(Cl)c6)CC5)CC4)c3)c3nccn23)c(F)cc1F (stereo not drawn) [Compound 54, 3-(2-chloro-4-(4-(2-(4-(4-((5-(2,4-difluoro-5-methylphenyl)imdazo [1,2-a]pyrazin-8-yl)amino)-1H-pyrazol-1-yl)piperidin-1-yl)ethyl)piperazin-1-yl)phenyl) piperidine-2,6-dione]
IRAK3-ePL
  IRAK3 ePL degradation Ymin: 28%
  DC50: 10 nM
IRAK3
  IRAK3 HTRF degradation Ymin: 15%
